Data: patent US6737383B1, “Herbicidal oxadiazolidines” (priority 1999, dated 2004)

Key:
bedstraw = assay: Test B pre/postemergence bedstraw; format: in vivo, Galium aparine
Summary of the method: (§1)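 Test chemicals in a non-phytotoxic solvent mixture with surfactant were sprayed preemergence onto planted seeds and postemergence onto plants 2 to 18 cm tall (1- to 4-leaf stage). After twelve to sixteen days in a greenhouse, injury was visually rated against untreated controls from 0 (no effect) to 10 (complete control).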

blackgrass = assay: Test B pre/postemergence blackgrass; format: in vivo, Alopecurus myosuroides
Summary of the method: as §1

surinam grass = assay: Test B pre/postemergence surinam grass; format: in vivo, Brachiaria decumbens
Summary of the method: as §1

cocklebur = assay: Test B pre/postemergence cocklebur; format: in vivo, Xanthium strumarium
Summary of the method: as §1

corn = assay: Test B pre/postemergence corn; format: in vivo, Zea mays
Summary of the method: as §1

crabgrass = assay: Test B pre/postemergence crabgrass; format: in vivo, Digitaria sanguinalis
Summary of the method: as §1

soybean = assay: Test B pre/postemergence soybean; format: in vivo, Glycine max; details: for Plant response rating, Soybean: Postemergence
Summary of the method: as §1

sugar beet = assay: Test B pre/postemergence sugar beet; format: in vivo, Beta vulgaris; details: for Plant response rating, Sugarbeets: Postemergence
Summary of the method: as §1

velvetleaf = assay: Test B pre/postemergence velvetleaf; format: in vivo, Abutilon theophrasti; details: for Plant response rating, Velvetleaf: Postemergence
Summary of the method: as §1

wheat = assay: Test B pre/postemergence wheat; format: in vivo, Triticum aestivum; details: for Plant response rating, Wheat: Postemergence
Summary of the method: as §1

wild oat = assay: Test B pre/postemergence wild oat; format: in vivo, Avena fatua; details: for Plant response rating, Wild oats: Postemergence
Summary of the method: as §1

purple nutsedge = assay: Test B pre/postemergence purple nutsedge; format: in vivo, Cyperus rotundus
Summary of the method: as §1

rice = assay: Test B flood test rice; format: in vivo, Oryza sativa
Summary of the method: (§2)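 Each value is a visual injury score relative to controls, with 10 meaning complete control and 0 no effect. Evaluation took place twelve to sixteen days after the 2-leaf-stage plants were treated and kept in the greenhouse.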

smallflower flatsedge = assay: Test B flood test smallflower flatsedge; format: in vivo, Cyperus difformis
Summary of the method: as §2

duck salad = assay: Test B flood test duck salad; format: in vivo, Heteranthera limosa
Summary of the method: as §2

bamyardgrass = assay: Test B flood test barnyardgrass; format: in vivo, Echinochloa crus-galli
Summary of the method: as §2

[1] = Postemergence, Rate 62 g/ha, scale of 0 to 10, 0 is no effect, 10 is complete control
[2] = Postemergence, Rate 125 g/ha, scale 0 to 10, 0 is no effect, 10 is complete control
[3] = Postemergence, Rate 500 g/ha, scale of 0 to 10 where 0 is no effect and 10 is complete control
[4] = Preemergence, Rate 62 g/ha, scale 0 to 10 (0 no effect, 10 complete control)
[5] = Preemergence, Rate 125 g/ha, scale 0 to 10, 0 is no effect, 10 is complete control
[6] = Preemergence, Rate 500 g/ha, scale of 0 to 10 where 0 is no effect and 10 is complete control
[7] = Rate 250 g/ha, Postemergence, scale of 0 to 10 where 0 is no effect and 10 is complete control
[8] = Rate 500 g/ha, scale of 0 to 10 where 0 is no effect and 10 is complete control
[9] = Rate 250 g/ha, scale of 0 to 10 where 0 is no effect and 10 is complete control
[10] = Rate 62 g/ha, flood test species, Pre-emergence, visual evaluation after twelve to sixteen days
[11] = Rate 125 g/ha, under heading Pre-emergence, flood test species, visual evaluation after twelve to sixteen days
[12] = Rate 250 g/ha, Pre-emergence (flood test species), scale 0 to 10, 0 is no effect, 10 is complete control
[13] = Rate 500 g/ha, Pre-emergence section of Table B, 0 to 10 scale (0 no effect, 10 complete control)

CC(C)N(C(=O)n1oc(=O)n(CCc2ccccc2)c1=O)c1ccccc1 [Compound 567]
8: Plant response rating, Crabgrass (crabgrass; [3])
5: Corn plant response rating (corn; [6])
7: Blackgrass plant response rating (blackgrass; [6]) | Crabgrass plant response rating (crabgrass; [2]) | Plant response rating, Crabgrass (crabgrass; [7])
4: Plant response rating, Soybean (soybean; [9]) | Nutsedge plant response rating (purple nutsedge; [1])
6: Plant response rating, Soybean (soybean; [8])
2: B. signalgrass plant response rating (0 to 10 scale, 0 is no effect, 10 is complete control) (surinam grass; Preemergence, Rate 250 g/ha) | Plant response rating, Cocklebur (cocklebur; [3]) | Sugarbeets plant response rating (sugar beet; [6]) | Plant response rating, Velvetleaf (velvetleaf; [8])
9: B. signalgrass plant response rating (surinam grass; [6]) | Crabgrass plant response rating (crabgrass; [5]) | Crabgrass plant response rating (0 to 10 scale) (crabgrass; Preemergence, Rate 250 g/ha) | Crabgrass plant response rating (crabgrass; [6])
3: Crabgrass plant response rating (crabgrass; [1])
0: Bedstraw plant response rating (bedstraw; [1]) | Bedstraw plant response rating (bedstraw; [2]) | Plant response rating, Bedstraw (bedstraw; [3]) | Bedstraw plant response rating (bedstraw; [4]) | Bedstraw plant response rating (bedstraw; [5]) | Bedstraw plant response rating (0 to 10 scale) (bedstraw; Preemergence, Rate 250 g/ha) | Bedstraw plant response rating (bedstraw; [6]) | Plant response rating, Bedstraw (bedstraw; [7]) | Blackgrass plant response rating (blackgrass; [1]) | Blackgrass plant response rating (blackgrass; [2]) | Plant response rating, Blackgrass (blackgrass; [3]) | Blackgrass plant response rating (blackgrass; [4]) | Blackgrass plant response rating (blackgrass; [5]) | Blackgrass plant response rating (0 to 10 scale) (blackgrass; Preemergence, Rate 250 g/ha) | Plant response rating, Blackgrass (blackgrass; [7]) | B. signalgrass plant response rating (surinam grass; [1]) | B. signalgrass plant response rating (surinam grass; [2]) | Plant response rating, B. signalgrass (surinam grass; [3]) | B. signalgrass plant response rating (surinam grass; [4]) | B. signalgrass plant response rating (surinam grass; [5]) | Plant response rating, B. signalgrass (surinam grass; [7]) | Cocklebur plant response rating (cocklebur; [1]) | Cocklebur plant response rating (cocklebur; [2]) | Cocklebur plant response rating (cocklebur; [4]) | Cocklebur plant response rating (cocklebur; [5]) | Cocklebur plant response rating (0 to 10 scale) (cocklebur; Preemergence, Rate 250 g/ha) | Cocklebur plant response rating (cocklebur; [6]) | Plant response rating, Cocklebur (cocklebur; [7]) | Corn plant response rating (corn; [1]) | Corn plant response rating (corn; [2]) | Plant response rating, Corn (corn; [3]) | Corn plant response rating (corn; [4]) | Corn plant response rating (corn; [5]) | Corn plant response rating (0 to 10 scale) (corn; Preemergence, Rate 250 g/ha) | Plant response rating, Corn (corn; [7]) | Crabgrass plant response rating (crabgrass; [4]) | Soybean plant response rating (soybean; [4]) | Soybean plant response rating (soybean; [5]) | Soybean plant response rating (0 to 10 scale) (soybean; Preemergence, Rate 250 g/ha) | Soybean plant response rating (soybean; [6]) | Plant response rating, Sugarbeets (sugar beet; [8]) | Sugarbeets plant response rating (sugar beet; [4]) | Sugarbeets plant response rating (sugar beet; [5]) | Sugarbeets plant response rating (0 to 10 scale) (sugar beet; Preemergence, Rate 250 g/ha) | Plant response rating, Sugarbeets (sugar beet; [9]) | Velvetleaf plant response rating (velvetleaf; [4]) | Velvetleaf plant response rating (velvetleaf; [5]) | Velvetleaf plant response rating (0 to 10 scale) (velvetleaf; Preemergence, Rate 250 g/ha) | Velvetleaf plant response rating (velvetleaf; [6]) | Plant response rating, Velvetleaf (velvetleaf; [9]) | Plant response rating, Wheat (wheat; [8]) | Wheat plant response rating (wheat; [4]) | Wheat plant response rating (wheat; [5]) | Wheat plant response rating (0 to 10 scale) (wheat; Preemergence, Rate 250 g/ha) | Wheat plant response rating (wheat; [6]) | Plant response rating, Wheat (wheat; [9]) | Plant response rating, Wild oats (wild oat; [8]) | Wild oats plant response rating (wild oat; [4]) | Wild oats plant response rating (wild oat; [5]) | Wild oats plant response rating (0 to 10 scale) (wild oat; Preemergence, Rate 250 g/ha) | Wild oats plant response rating (wild oat; [6]) | Plant response rating, Wild oats (wild oat; [9]) | Plant response rating, Nutsedge (purple nutsedge; [3]) | Nutsedge plant response rating (purple nutsedge; [4]) | Nutsedge plant response rating (purple nutsedge; [5]) | Nutsedge plant response rating (0 to 10 scale) (purple nutsedge; Preemergence, Rate 250 g/ha) | Nutsedge plant response rating (purple nutsedge; [6]) | Plant response rating, Rice (0 to 10 scale, 0 is no effect, 10 is complete control) (rice; [10]) | Rice plant response rating (0 to 10 scale, 0 is no effect, 10 is complete control) (rice; [11]) | Rice plant response rating (rice; [12]) | Rice plant response rating (rice; [13]) | Plant response rating, S. Flatsedge (0 to 10 scale, 0 is no effect, 10 is complete control) (smallflower flatsedge; [10]) | S. Flatsedge plant response rating (0 to 10 scale, 0 is no effect, 10 is complete control) (smallflower flatsedge; [11]) | S. Flatsedge plant response rating (smallflower flatsedge; [12]) | S. Flatsedge plant response rating (smallflower flatsedge; [13]) | Plant response rating, Ducksalad (0 to 10 scale, 0 is no effect, 10 is complete control) (duck salad; [10]) | Ducksalad plant response rating (0 to 10 scale, 0 is no effect, 10 is complete control) (duck salad; [11]) | Ducksalad plant response rating (duck salad; [12]) | Ducksalad plant response rating (duck salad; [13]) | Plant response rating, Barnyardgrass (0 to 10 scale, 0 is no effect, 10 is complete control) (bamyardgrass; [10]) | Barnyardgrass plant response rating (0 to 10 scale, 0 is no effect, 10 is complete control) (bamyardgrass; [11]) | Barnyardgrass plant response rating (bamyardgrass; [12]) | Barnyardgrass plant response rating (bamyardgrass; [13])
